Measured values: ChEMBL document CHEMBL1909294, “Translating clinical findings into knowledge in drug safety evaluation--drug induced liver injury prediction system (DILIps)” (PLoS Comput Biol, 2011)

Columns and labels:
[1] = tested on: Hepatotoxicity;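 as to HepSE cholecystitis: Cholecystitis-related hepatic side effect score drawn from the DILIps (drug-induced liver injury prediction) training data set; call rule not given here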;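 as to HepSE cirrhosis: cirrhosis hepatic side effect score taken from the DILIps (drug-induced liver injury prediction) training set; call rule not given here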; as to HepSE hepatic failure: call rule not given here;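 as to HepSE hepatitis: Hepatitis-related hepatic side effect score taken from the training data of DILIps, a prediction system for drug-induced liver injury; call rule not given here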;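 as to HepSE hepatomegaly: hepatic side effect score for hepatomegaly, taken from the training set of the DILIps drug-induced liver injury prediction system; call rule not given here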; as to HepSE liver disease: call rule not given here;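 as to HepSE liver fatty: hepatic side effect score for fatty liver, taken from the DILIps training set for predicting drug-induced liver injury; call rule not given here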
[2] = tested on: Hepatotoxicity; remark: listed apart in the source;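 as to HepSE cholecystitis: Cholecystitis-related hepatic side effect score drawn from the DILIps (drug-induced liver injury prediction) training data set; call rule not given here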;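 as to HepSE cirrhosis: cirrhosis hepatic side effect score taken from the DILIps (drug-induced liver injury prediction) training set; call rule not given here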; as to HepSE hepatic failure: call rule not given here;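 as to HepSE hepatitis: Hepatitis-related hepatic side effect score taken from the training data of DILIps, a prediction system for drug-induced liver injury; call rule not given here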;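 as to HepSE hepatomegaly: hepatic side effect score for hepatomegaly, taken from the training set of the DILIps drug-induced liver injury prediction system; call rule not given here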; as to HepSE liver disease: call rule not given here;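 as to HepSE liver fatty: hepatic side effect score for fatty liver, taken from the DILIps training set for predicting drug-induced liver injury; call rule not given here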
[3] = tested on: Hepatotoxicity; remark: listed apart in the source;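 as to HepSE cholecystitis: Cholecystitis-related hepatic side effect score drawn from the DILIps (drug-induced liver injury prediction) training data set; call rule not given here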;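 as to HepSE cirrhosis: cirrhosis hepatic side effect score taken from the DILIps (drug-induced liver injury prediction) training set; call rule not given here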; as to HepSE hepatic failure: call rule not given here;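 as to HepSE hepatitis: Hepatitis-related hepatic side effect score taken from the training data of DILIps, a prediction system for drug-induced liver injury; call rule not given here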;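 as to HepSE hepatomegaly: hepatic side effect score for hepatomegaly, taken from the training set of the DILIps drug-induced liver injury prediction system; call rule not given here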; as to HepSE liver disease: call rule not given here;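 as to HepSE liver fatty: hepatic side effect score for fatty liver, taken from the DILIps training set for predicting drug-induced liver injury; call rule not given here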
[4] = tested on: Hepatotoxicity; remark: listed apart in the source;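 as to HepSE cholecystitis: Cholecystitis-related hepatic side effect score drawn from the DILIps (drug-induced liver injury prediction) training data set; call rule not given here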;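 as to HepSE cirrhosis: cirrhosis hepatic side effect score taken from the DILIps (drug-induced liver injury prediction) training set; call rule not given here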; as to HepSE hepatic failure: call rule not given here;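 as to HepSE hepatitis: Hepatitis-related hepatic side effect score taken from the training data of DILIps, a prediction system for drug-induced liver injury; call rule not given here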;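 as to HepSE hepatomegaly: hepatic side effect score for hepatomegaly, taken from the training set of the DILIps drug-induced liver injury prediction system; call rule not given here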;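 as to HepSE liver fatty: hepatic side effect score for fatty liver, taken from the DILIps training set for predicting drug-induced liver injury; call rule not given here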
[5] = tested on: Hepatotoxicity; remark: listed apart in the source; as to HepSE hepatic failure: call rule not given here
[6] = tested on: Hepatotoxicity; remark: listed apart in the source; as to HepSE hepatic failure: call rule not given here
[7] = tested on: Hepatotoxicity; remark: listed apart in the source
[8] = tested on: Hepatotoxicity; remark: listed apart in the source
[9] = tested on: Hepatotoxicity; remark: listed apart in the source
[10] = tested on: Hepatotoxicity; remark: listed apart in the source
[11] = tested on: Hepatotoxicity; remark: listed apart in the source
[12] = tested on: Hepatotoxicity; remark: listed apart in the source
[13] = tested on: Hepatotoxicity; remark: listed apart in the source
[14] = tested on: Hepatotoxicity; remark: listed apart in the source

## Clc1ccc(C(c2ccccc2Cl)C(Cl)Cl)cc1 (configuration not stated) [MITOTANE]
[1]
  HepSE_cholecystitis: 0
[2]
  HepSE_hepatitis: 0
[3]
  HepSE_hepatomegaly: 0
[4]
  HepSE_liver fatty: 0
[5]
  HepSE_hepatic failure: 0
[6]
  HepSE_cirrhosis: 0
[7]
  HepSE_liver disease: 0
[8]
  HepSE_elevated liver function tests: 0
[9]
  HepSE_hepatic necrosis: 0
[10]
  HepSE_bilirubinemia: 0
[11]
  HepSE_Combined Scores: 0
[12]
  HepSE_jaundice: 0
[13]
  HepSE_cholelithiasis: 0
[14]
  HepSE_liver function tests abnormal: 0

## CCCCCCCCCCC[C@@H](C[C@@H]1OC(=O)[C@H]1CCCCCC)OC(=O)[C@H](CC(C)C)NC=O [ORLISTAT]
[1]
  HepSE_cholecystitis: 0
[2]
  HepSE_hepatitis: 1
[3]
  HepSE_hepatomegaly: 0
[4]
  HepSE_liver fatty: 0
[5]
  HepSE_hepatic failure: 0
[6]
  HepSE_cirrhosis: 0
[7]
  HepSE_liver disease: 0
[8]
  HepSE_elevated liver function tests: 0
[9]
  HepSE_hepatic necrosis: 0
[10]
  HepSE_bilirubinemia: 0
[11]
  HepSE_Combined Scores: 1
[12]
  HepSE_jaundice: 0
[13]
  HepSE_cholelithiasis: 0
[14]
  HepSE_liver function tests abnormal: 0

## OC[C@H]1O[C@@H](O[C@@H]2[C@@H](CO)O[C@](O)(CO)[C@H]2O)[C@H](O)[C@@H](O)[C@H]1O [LACTULOSE]
[1]
  HepSE_cholecystitis: 0
[2]
  HepSE_hepatitis: 0
[3]
  HepSE_hepatomegaly: 0
[4]
  HepSE_liver fatty: 0
[5]
  HepSE_hepatic failure: 0
[6]
  HepSE_cirrhosis: 0
[7]
  HepSE_liver disease: 0
[8]
  HepSE_elevated liver function tests: 0
[9]
  HepSE_hepatic necrosis: 0
[10]
  HepSE_bilirubinemia: 0
[11]
  HepSE_Combined Scores: 0
[12]
  HepSE_jaundice: 0
[13]
  HepSE_cholelithiasis: 0
[14]
  HepSE_liver function tests abnormal: 0

## Oc1ccc(C2CNCCc3c2cc(O)c(O)c3Cl)cc1 (configuration not stated) [FENOLDOPAM]
[1]
  HepSE_cholecystitis: 0
[2]
  HepSE_hepatitis: 0
[3]
  HepSE_hepatomegaly: 0
[4]
  HepSE_liver fatty: 0
[5]
  HepSE_hepatic failure: 0
[6]
  HepSE_cirrhosis: 0
[7]
  HepSE_liver disease: 0
[8]
  HepSE_elevated liver function tests: 0
[9]
  HepSE_hepatic necrosis: 0
[10]
  HepSE_bilirubinemia: 0
[11]
  HepSE_Combined Scores: 0
[12]
  HepSE_jaundice: 0
[13]
  HepSE_cholelithiasis: 0
[14]
  HepSE_liver function tests abnormal: 0

## CCN(CC)CC#CCOC(=O)C(O)(c1ccccc1)C1CCCCC1 (configuration not stated) [OXYBUTYNIN]
[1]
  HepSE_cholecystitis: 0
[2]
  HepSE_hepatitis: 0
[3]
  HepSE_hepatomegaly: 0
[4]
  HepSE_liver fatty: 0
[5]
  HepSE_hepatic failure: 0
[6]
  HepSE_cirrhosis: 0
[7]
  HepSE_liver disease: 0
[8]
  HepSE_elevated liver function tests: 0
[9]
  HepSE_hepatic necrosis: 0
[10]
  HepSE_bilirubinemia: 0
[11]
  HepSE_Combined Scores: 1
[12]
  HepSE_jaundice: 0
[13]
  HepSE_cholelithiasis: 0
[14]
  HepSE_liver function tests abnormal: 1

## CC(=O)N1CCN(c2ccc(OCC3COC(Cn4ccnc4)(c4ccc(Cl)cc4Cl)O3)cc2)CC1 (configuration not stated) [KETOCONAZOLE]
[1]
  HepSE_cholecystitis: 0
[2]
  HepSE_hepatitis: 0
[3]
  HepSE_hepatomegaly: 0
[4]
  HepSE_liver fatty: 0
[5]
  HepSE_hepatic failure: 0
[6]
  HepSE_cirrhosis: 0
[7]
  HepSE_liver disease: 0
[8]
  HepSE_elevated liver function tests: 0
[9]
  HepSE_hepatic necrosis: 0
[10]
  HepSE_bilirubinemia: 0
[11]
  HepSE_Combined Scores: 0
[12]
  HepSE_jaundice: 0
[13]
  HepSE_cholelithiasis: 0
[14]
  HepSE_liver function tests abnormal: 0

## CN(C)/N=N/c1[nH]cnc1C(N)=O [DACARBAZINE]
[1]
  HepSE_cholecystitis: 0
[2]
  HepSE_hepatitis: 0
[3]
  HepSE_hepatomegaly: 0
[4]
  HepSE_liver fatty: 0
[5]
  HepSE_hepatic failure: 0
[6]
  HepSE_cirrhosis: 0
[7]
  HepSE_liver disease: 0
[8]
  HepSE_elevated liver function tests: 0
[9]
  HepSE_hepatic necrosis: 0
[10]
  HepSE_bilirubinemia: 0
[11]
  HepSE_Combined Scores: 0
[12]
  HepSE_jaundice: 0
[13]
  HepSE_cholelithiasis: 0
[14]
  HepSE_liver function tests abnormal: 0

## O=C(NCC1CCCCN1)c1cc(OCC(F)(F)F)ccc1OCC(F)(F)F (configuration not stated) [FLECAINIDE]
[1]
  HepSE_cholecystitis: 0
[2]
  HepSE_hepatitis: 0
[3]
  HepSE_hepatomegaly: 0
[4]
  HepSE_liver fatty: 0
[5]
  HepSE_hepatic failure: 1
[6]
  HepSE_cirrhosis: 0
[7]
  HepSE_liver disease: 0
[8]
  HepSE_elevated liver function tests: 0
[9]
  HepSE_hepatic necrosis: 0
[10]
  HepSE_bilirubinemia: 0
[11]
  HepSE_Combined Scores: 2
[12]
  HepSE_jaundice: 1
[13]
  HepSE_cholelithiasis: 0
[14]
  HepSE_liver function tests abnormal: 0

## Clc1cccc(Cl)c1N=C1NCCN1 [CLONIDINE]
[1]; Liver
  HepSE_cholecystitis: 0
[2]; Liver
  HepSE_hepatitis: 1
[3]; Liver
  HepSE_hepatomegaly: 0
[4]; Liver
  HepSE_liver fatty: 0
[5]; Liver
  HepSE_hepatic failure: 0
[6]; Liver
  HepSE_cirrhosis: 0
[7]; Liver
  HepSE_liver disease: 0
[8]; Liver
  HepSE_elevated liver function tests: 0
[9]; Liver
  HepSE_hepatic necrosis: 0
[10]; Liver
  HepSE_bilirubinemia: 0
[11]; Liver
  HepSE_Combined Scores: 1
[12]; Liver
  HepSE_jaundice: 0
[13]; Liver
  HepSE_cholelithiasis: 0
[14]; Liver
  HepSE_liver function tests abnormal: 0

## CC(C)N(CCC(C(N)=O)(c1ccccc1)c1ccccn1)C(C)C (configuration not stated) [DISOPYRAMIDE]
[1]
  HepSE_cholecystitis: 0
[2]
  HepSE_hepatitis: 0
[3]
  HepSE_hepatomegaly: 0
[4]
  HepSE_liver fatty: 0
[5]
  HepSE_hepatic failure: 0
[6]
  HepSE_cirrhosis: 0
[7]
  HepSE_liver disease: 0
[8]
  HepSE_elevated liver function tests: 0
[9]
  HepSE_hepatic necrosis: 0
[10]
  HepSE_bilirubinemia: 0
[11]
  HepSE_Combined Scores: 1
[12]
  HepSE_jaundice: 1
[13]
  HepSE_cholelithiasis: 0
[14]
  HepSE_liver function tests abnormal: 0

## Cc1c(-c2ccccc2)oc2c(C(=O)OCCN3CCCCC3)cccc2c1=O [FLAVOXATE]
[1]
  HepSE_cholecystitis: 0
[2]
  HepSE_hepatitis: 0
[3]
  HepSE_hepatomegaly: 0
[4]
  HepSE_liver fatty: 0
[5]
  HepSE_hepatic failure: 0
[6]
  HepSE_cirrhosis: 0
[7]
  HepSE_liver disease: 0
[8]
  HepSE_elevated liver function tests: 0
[9]
  HepSE_hepatic necrosis: 0
[10]
  HepSE_bilirubinemia: 0
[11]
  HepSE_Combined Scores: 0
[12]
  HepSE_jaundice: 0
[13]
  HepSE_cholelithiasis: 0
[14]
  HepSE_liver function tests abnormal: 0

## CC(COc1ccccc1)NC(C)C(O)c1ccc(O)cc1 (configuration not stated) [ISOXSUPRINE]
[1]
  HepSE_cholecystitis: 0
[2]
  HepSE_hepatitis: 0
[3]
  HepSE_hepatomegaly: 0
[4]
  HepSE_liver fatty: 0
[5]
  HepSE_hepatic failure: 0
[6]
  HepSE_cirrhosis: 0
[7]
  HepSE_liver disease: 0
[8]
  HepSE_elevated liver function tests: 0
[9]
  HepSE_hepatic necrosis: 0
[10]
  HepSE_bilirubinemia: 0
[11]
  HepSE_Combined Scores: 0
[12]
  HepSE_jaundice: 0
[13]
  HepSE_cholelithiasis: 0
[14]
  HepSE_liver function tests abnormal: 0

## O=C1CN2Cc3c(ccc(Cl)c3Cl)N=C2N1 [ANAGRELIDE]
[1]
  HepSE_cholecystitis: 0
[2]
  HepSE_hepatitis: 0
[3]
  HepSE_hepatomegaly: 0
[4]
  HepSE_liver fatty: 0
[5]
  HepSE_hepatic failure: 0
[6]
  HepSE_cirrhosis: 0
[7]
  HepSE_liver disease: 0
[8]
  HepSE_elevated liver function tests: 1
[9]
  HepSE_hepatic necrosis: 0
[10]
  HepSE_bilirubinemia: 0
[11]
  HepSE_Combined Scores: 1
[12]
  HepSE_jaundice: 0
[13]
  HepSE_cholelithiasis: 0
[14]
  HepSE_liver function tests abnormal: 0
